Results: PubChem BioAssay AID1259407 (Chemical Carcinogenesis Research Information System (CCRIS), 2018)
Active and inactive are the calls of the source. How the calls were made is not given here.

Test system: CCRIS mutagenicity, Ames/micronucleus/aberration tests
Test: CCRIS mutagenicity studies

Measured: mutagenic call

CS(C)=O
inactive: End Point: IN VITRO CHROMOSOMAL ABERRATIONS, Test System: CHO-LB CELLS, Metabolic Activation: NONE inactive; negative | End Point: IN VITRO CHROMOSOMAL ABERRATIONS, Test System: CHO-LB CELLS, Metabolic Activation: RAT, LIVER, S-9, AROCLOR 1254 inactive; negative | Test System: AMES SALMONELLA TYPHIMURIUM, Strain/Indicator: TA97, Metabolic Activation: HAMSTER, LIVER, S-9, AROCLOR 1254 (10 OR 30%), Method: PREINCUBATION inactive; negative | Test System: AMES SALMONELLA TYPHIMURIUM, Strain/Indicator: TA97, Metabolic Activation: NONE, Method: PREINCUBATION inactive; negative | Test System: AMES SALMONELLA TYPHIMURIUM, Strain/Indicator: TA97, Metabolic Activation: NONE, Method: PREINCUBATION (20 MIN) inactive; negative | Test System: AMES SALMONELLA TYPHIMURIUM, Strain/Indicator: TA97, Metabolic Activation: NONE, Method: STANDARD PLATE inactive; negative | Test System: AMES SALMONELLA TYPHIMURIUM, Strain/Indicator: TA97, Metabolic Activation: RAT, LIVER, S-9, AROCLOR 1254 (10 OR 30%), Method: PREINCUBATION inactive; negative | Test System: AMES SALMONELLA TYPHIMURIUM, Strain/Indicator: TA97, Metabolic Activation: RAT, LIVER, S-9, AROCLOR 1254, Method: STANDARD PLATE inactive; negative | Test System: AMES SALMONELLA TYPHIMURIUM, Strain/Indicator: TA97, Metabolic Activation: RAT, LIVER, S-9, PHENOBARBITAL AND 5,6-BENZOFLAVONE, Method: PREINCUBATION (20 MIN) inactive; negative | Test System: AMES SALMONELLA TYPHIMURIUM, Strain/Indicator: TA98, Metabolic Activation: HAMSTER, LIVER, S-9, AROCLOR 1254 (10 OR 30%), Method: PREINCUBATION inactive; negative | Test System: AMES SALMONELLA TYPHIMURIUM, Strain/Indicator: TA98, Metabolic Activation: NONE, Method: FLUCTUATION (MICROTITER) inactive; negative | Test System: AMES SALMONELLA TYPHIMURIUM, Strain/Indicator: TA98, Metabolic Activation: NONE, Method: PREINCUBATION inactive; negative | Test System: AMES SALMONELLA TYPHIMURIUM, Strain/Indicator: TA98, Metabolic Activation: NONE, Method: PREINCUBATION (20 MIN) inactive; negative | Test System: AMES SALMONELLA TYPHIMURIUM, Strain/Indicator: TA98, Metabolic Activation: NONE, Method: STANDARD PLATE inactive; negative | Test System: AMES SALMONELLA TYPHIMURIUM, Strain/Indicator: TA98, Metabolic Activation: RAT LIVER S-9, AROCLOR 1254, Method: FLUCTUATION (MICROTITER) inactive; negative | Test System: AMES SALMONELLA TYPHIMURIUM, Strain/Indicator: TA98, Metabolic Activation: RAT, LIVER, S-9, AROCLOR 1254 (10 OR 30%), Method: PREINCUBATION inactive; negative | Test System: AMES SALMONELLA TYPHIMURIUM, Strain/Indicator: TA98, Metabolic Activation: RAT, LIVER, S-9, AROCLOR 1254, Method: STANDARD PLATE inactive; negative | Test System: AMES SALMONELLA TYPHIMURIUM, Strain/Indicator: TA98, Metabolic Activation: RAT, LIVER, S-9, PHENOBARBITAL AND 5,6-BENZOFLAVONE, Method: PREINCUBATION (20 MIN) inactive; negative | Test System: AMES SALMONELLA TYPHIMURIUM, Strain/Indicator: TA100, Metabolic Activation: HAMSTER, LIVER, S-9, AROCLOR 1254 (10 OR 30%), Method: PREINCUBATION inactive; negative | Test System: AMES SALMONELLA TYPHIMURIUM, Strain/Indicator: TA100, Metabolic Activation: NONE, Method: PREINCUBATION inactive; negative | Test System: AMES SALMONELLA TYPHIMURIUM, Strain/Indicator: TA100, Metabolic Activation: NONE, Method: PREINCUBATION (20 MIN) inactive; negative | Test System: AMES SALMONELLA TYPHIMURIUM, Strain/Indicator: TA100, Metabolic Activation: NONE, Method: STANDARD PLATE inactive; negative | Test System: AMES SALMONELLA TYPHIMURIUM, Strain/Indicator: TA100, Metabolic Activation: RAT, LIVER, S-9, AROCLOR 1254 (10 OR 30%), Method: PREINCUBATION inactive; negative | Test System: AMES SALMONELLA TYPHIMURIUM, Strain/Indicator: TA100, Metabolic Activation: RAT, LIVER, S-9, AROCLOR 1254, Method: STANDARD PLATE inactive; negative | Test System: AMES SALMONELLA TYPHIMURIUM, Strain/Indicator: TA100, Metabolic Activation: RAT, LIVER, S-9, PHENOBARBITAL AND 5,6-BENZOFLAVONE, Method: PREINCUBATION (20 MIN) inactive; negative | Test System: AMES SALMONELLA TYPHIMURIUM, Strain/Indicator: TA102, Metabolic Activation: NONE, Method: PREINCUBATION (20 MIN) inactive; negative | Test System: AMES SALMONELLA TYPHIMURIUM, Strain/Indicator: TA102, Metabolic Activation: RAT, LIVER, S-9, PHENOBARBITAL AND 5,6-BENZOFLAVONE, Method: PREINCUBATION (20 MIN) inactive; negative | Test System: AMES SALMONELLA TYPHIMURIUM, Strain/Indicator: TA104, Metabolic Activation: NONE, Method: PREINCUBATION (20 MIN) inactive; negative | Test System: AMES SALMONELLA TYPHIMURIUM, Strain/Indicator: TA104, Metabolic Activation: RAT, LIVER, S-9, PHENOBARBITAL AND 5,6-BENZOFLAVONE, Method: PREINCUBATION (20 MIN) inactive; negative | Test System: AMES SALMONELLA TYPHIMURIUM, Strain/Indicator: TA1535, Metabolic Activation: HAMSTER, LIVER, S-9, AROCLOR 1254 (10 OR 30%), Method: PREINCUBATION inactive; negative | Test System: AMES SALMONELLA TYPHIMURIUM, Strain/Indicator: TA1535, Metabolic Activation: NONE, Method: PREINCUBATION inactive; negative | Test System: AMES SALMONELLA TYPHIMURIUM, Strain/Indicator: TA1535, Metabolic Activation: NONE, Method: PREINCUBATION (20 MIN) inactive; negative
